Counter-ions that a name gives are not always drawn.
Experiments:
[1] = molecular target: T1, KRAS_G12D and cRAF (Homo sapiens, UniProt P01116, G12D); test: Inhibition of KRAS_G12D/cRAF binding (Cisbio binding kit, 665/615 ratio), Effect Embodiment B; details: read-out: GTP-KRAS-G12D:CRAF IC50
T1 construct: purchased
How it was run: (§1)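 Compounds are tested over eleven threefold dilution steps in duplicate, with final DMSO at 1%.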

[2] = molecular target: T2, KRAS_WT and SOS1 (Homo sapiens, UniProt P01116); test: Inhibition of KRAS_WT/SOS1 binding (Cisbio binding kit, 665/615 ratio), Effect Embodiment C; details: read-out: GTP-KRAS-WT:SOS1 IC50
T2 construct: purchased
T2 sequence (P01116 1-188 isoform P01116-2): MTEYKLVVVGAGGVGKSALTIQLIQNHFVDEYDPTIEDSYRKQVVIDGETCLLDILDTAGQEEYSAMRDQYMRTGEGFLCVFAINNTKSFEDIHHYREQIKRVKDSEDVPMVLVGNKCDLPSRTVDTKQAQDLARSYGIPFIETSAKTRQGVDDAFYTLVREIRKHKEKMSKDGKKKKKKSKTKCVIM
How it was run: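 Compounds tested as 3-fold, 11-point dilutions in duplicate at 1% DMSO final against the KRAS_WT/SOS1 binding system. IC50 derived by nonlinear regression fit.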

[3] = molecular target: T3, KRAS-G12D and SOS1 (Homo sapiens, UniProt P01116, G12D); test: Inhibition of KRAS-G12D/SOS1 binding (Cisbio binding kit, 665/615 ratio), Effect Embodiment A; details: read-out: GTP-KRAS-G12D:SOS1 IC50
T3 construct: purchased
T3 sequence (P01116 1-188 isoform P01116-2 G12D): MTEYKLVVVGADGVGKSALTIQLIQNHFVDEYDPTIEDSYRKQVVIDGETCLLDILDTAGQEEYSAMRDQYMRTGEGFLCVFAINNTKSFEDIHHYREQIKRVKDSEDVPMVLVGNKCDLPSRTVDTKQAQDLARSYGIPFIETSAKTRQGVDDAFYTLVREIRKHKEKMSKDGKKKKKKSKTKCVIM
How it was run: as §1

T1 sequence (P01116 1-188 isoform P01116-2 G12D): as above

IC50 [1] [µM]	IC50 [2] [µM]	IC50 [3] [µM]	Structure (SMILES)
0.147	2.17	0.0597	CCN(CC)CCCOc1nc(N2CC3CCC(C2)N3)c2cc(Cl)c(-c3cc(O)cc4ccccc34)c(F)c2n1 (single isomer, unassigned) [Compound 53a, 4-((S or R)-4-((1R,5S)-3,8-diazabicyclo[3.2.1]octan-3-yl)-6-chloro-2-(3-(diethylamino)propoxy)-8-fluoroquinazolin-7-yl)naphthalen-2-ol]
0.0203	0.564	0.0178	CCc1cccc2cccc(-c3c(F)cc4c(N5CC6CCC(C5)N6)nc(OC[C@@]56CCCN5C[C@H](F)C6)nc4c3F)c12 (single isomer, unassigned) [Compound 281a, (S or R)-4-((1R,5S)-3,8-diazacyclo[3.2.1]octan-3-yl)-7-(8-ethylnaphthalen-1-yl)-6,8-difluoro-2-((2R,7aS)-2-fluorotetrahydro-1H-pyrrolin-7a(5H)-yl)methoxy)quinazoline dihydrochloride]
0.283	1.25	0.0446	CN(C)C1CN(c2nc(N3CC4CCC(C3)N4)c3cc(Cl)c(-c4cc(O)cc5cccc(F)c45)c(F)c3n2)C1 (single isomer, unassigned) [Compound 64b, 4-((R or S)-4-((1R,5S)-3,8-diazabicyclo[3.2.1]octan-3-yl)-6-chloro-2-(3-(dimethylamino)azetidin-1-yl)-8-fluoroquinazolin-7-yl)-5-fluoronaphthalen-2-ol]
0.334	6.49	0.0577	CN1CCC[C@H]1COc1nc(N2CC3CCC(C2)N3)c2cc(Cl)c(-c3c(F)c(O)cc4ccccc34)c(F)c2n1 (single isomer, unassigned) [Compound 195b, (S or R)-4-(4-((1R,5S)-3,8-diazabicyclo[3.2.1]octan-3-yl)-6-chloro-8-fluoro-2-((S)-1-methylpyrrolidin-2-yl)methoxy)quinazolin-7-yl)-3-fluoronaphthalen-2-ol formate]
0.119	2.52	0.0574	CN1CCC1CCOc1nc(N2CC3CCC(C2)N3)c2cc(Cl)c(-c3cc(O)cc4ccccc34)c(F)c2n1 (single isomer, unassigned) [Compound 112a, 4-((S or R)-4-((1R,5S)-3,8-diazabicyclo[3.2.1]octan-3-yl)-6-chloro-8-fluoro-2-(2-((S or R)-1-methylazetidin-2-yl)ethoxy)quinazolin-7-yl)naphthalen-2-ol dicarboxylate]
0.101	0.196	0.0193	Oc1cc(-c2c(Cl)cc3c(N4CC5CCC(C4)N5)nc(OCC4CCC5COCCN5C4)nc3c2F)c2ccccc2c1 (single isomer, unassigned) [Compound 264b, 4-((R or S)-4-((1R,5S)-3,8-diazacyclo[3.2.1]octan-3-yl)-6-chloro-8-fluoro-2-((7R or 7S, 9aR or 9aS)-octahydropyridine[2,1-c][1,4]oxazin-7-yl)methoxy)quinazolin-7-yl)naphthalen-2-ol formate]

More lines, now with the values behind:

Structure (SMILES)	IC50 [1] [µM]	IC50 [2] [µM]	IC50 [3] [µM]
CN1CCC[C@H]1COc1nc(N2C[C@H]3CC[C@@H](C2)N3)c2ccc(-c3cc(O)cc4ccccc34)c(F)c2n1 [Compound 144, 4-(4-((1R,5S)-3,8-diazabicyclo[3.2.1]octan-3-yl)-8-fluoro-2-((S)-1-methylpyrrolidin-2-yl)methoxy)quinazolin-7-yl)naphthalen-2-ol tritrifluoroacetate]	0.0179	0.18	0.0144
CN(C)C1CN(c2nc(N3CCNC4CC43)c3cc(Cl)c(-c4cc(O)cc5ccccc45)c(F)c3n2)C1 (single isomer, unassigned) [Compound 28, 4-((S or R)-4-((1R,6S or 1S,6R)-2,5-diazabicyclo[4.1.0]heptan-2-yl)-6-chloro-2-(3-(dimethylamino)azetidin-1-yl)-8-fluoroquinazolin-7-yl)naphthalen-2-ol trifluoroacetate]	4.7	22.5	0.312
CO[C@@H]1C[C@@H](COc2nc(N3CC4CCC(C3)N4)c3cc(Cl)c(-c4cc(O)cc5ccccc45)c(F)c3n2)N(C)C1 (single isomer, unassigned) [Compound 166, (R or S)-4-(4-((1R,5S)-3,8-diazabicyclo[3.2.1]octan-3-yl)-6-chloro-8-fluoro-2-((2S,4R)-4-methoxy-1-methylpyrrolidin-2-yl)methoxy)quinazolin-7-yl)naphthalenol dihydrochloride]	0.0319	0.553	0.025
CN(C)CC1(COc2nc(N3CC4CCC(C3)N4)c3cc(Cl)c(-c4cc(O)cc5ccccc45)c(F)c3n2)CC1 (single isomer, unassigned) [Compound 186, 4-((R or S)-4-((1R,5S)-3,8-diazabicyclo[3.2.1]octan-3-yl)-6-chloro-2-((1-((dimethylamino)methyl)cyclopropyl)methoxy)-8-fluoroquinazolin-7-yl)naphthalen-2-ol diformate]	0.0181	0.233	0.0169
C[C@H]1CCCCN1CCOc1nc(N2CC3CCC(C2)N3)c2cc(Cl)c(-c3cc(O)cc4ccccc34)c(F)c2n1 (single isomer, unassigned) [Compound 268, (R or S)-4-(4-((1R,5S)-3,8-diazacyclo[3.2.1]octan-3-yl)-6-chloro-8-fluoro-2-(2-((S)-2-methylpiperidin-1-yl)ethoxy)quinazolin-7-yl)naphthalen-2-ol diformate]	0.346	3.61	0.0524
CN1CCN(CCCOc2nc(N3CC4CCC(C3)N4)c3cc(Cl)c(-c4cc(O)cc5ccccc45)c(F)c3n2)CC1 (single isomer, unassigned) [Compound 99, 4-((S or R)-4-((1R,5S)-3,8-diazabicyclo[3.2.1]octan-3-yl)-6-chloro-8-fluoro-2-(3-(4-methylpiperazin-1-yl)propoxy)quinazolin-7-yl)naphthalen-2-ol dihydrochloride]	0.168	2.6	0.0522
CN1CC2(CC2)C[C@H]1COc1nc(N2CC3CCC(C2)N3)c2cnc(-c3cc(O)cc4ccccc34)c(F)c2n1 [Compound 137, 4-(4-((1R,5S)-3,8-diazabicyclo[3.2.1]octan-3-yl)-8-fluoro-2-((S)-5-methyl-5-azaspiro[2.4]heptan-6-yl)methoxy)pyridin[4,3-d]pyrimidin-7-yl)naphthalen-2-ol diformate]	0.0107	0.123	0.0133
Oc1cc(-c2c(Cl)cc3c(N4CC5CCC(C4)N5)nc(OC[C@@]45CCCN4C[C@H](F)C5)nc3c2F)c2ccccc2c1 (single isomer, unassigned) [Compound 176, 4-((R or S)-4-((1R,5S)-3,8-diazabicyclo[3.2.1]octan-3-yl)-6-chloro-8-fluoro-2-((2R,7aS)-2-fluorotetrahydro-1H-pyrrolin-7a(5H)-yl)methoxy)quinazolin-7-yl)naphthalenol formate]	0.00698	0.028	0.0136
Oc1cc(-c2c(Cl)cc3c(N4CC5CCC(C4)N5)nc(OCCCN4CCC5(CC4)COC5)nc3c2F)c2ccccc2c1 (single isomer, unassigned) [Compound 262, 4-((S or R)-2-(3-(2-oxa-7-azaspiro[3.5]nonan-7-yl)propoxy)-4-((1R,5S)-3,8-diazacyclo[3.2.1]octan-3-yl)-6-chloro-8-fluoroquinazolin-7-yl)naphthalen-2-ol diformate]	0.141	1.66	0.0243
CO[C@@H](COc1nc(N2CC3CCC(C2)N3)c2cc(Cl)c(-c3cc(O)cc4ccccc34)c(F)c2n1)CN1CCCC[C@H]1C (single isomer, unassigned) [Compound 266, (R or S)-4-(4-((1R,5S)-3,8-diazacyclo[3.2.1]octan-3-yl)-6-chloro-8-fluoro-2-((R)-2-methoxy-3-((R)-2-methylpiperidin-1-yl)propoxy)quinazolin-7-yl)naphthalen-2-ol diformate]	0.746	> 10	0.174
Oc1cc(-c2c(Cl)cc3c(N4CC5CCC(C4)N5)nc(OCC4(CN5C6CCC5COC6)CCC4)nc3c2F)c2ccccc2c1 (single isomer, unassigned) [Compound 173, (4R or S)-4-(2-((1-((3-oxa-8-azabicyclo[3.2.1]octan-8-yl)methyl)cyclobutyl)methoxy)-4-((1R,5S)-3,8-diazabicyclo[3.2.1]octan-3-yl)-6-chloro-8-fluoroquinazolin-7-yl)naphthalen-2-ol dihydrochloride]	0.0379	0.251	0.0148
CCCCN(C)CCCOc1nc(N2CC3CCC(C2)N3)c2cc(Cl)c(-c3cc(O)cc4ccccc34)c(F)c2n1 (single isomer, unassigned) [Compound 113, 4-((S or R)-4-((1R,5S)-3,8-diazabicyclo[3.2.1]octan-3-yl)-2-(3-(butyl(methyl)amino)propoxy)-6-chloro-8-fluoroquinazolin-7-yl)naphthalen-2-ol hydrochloride]	0.13	4	0.0518
Oc1cc(-c2c(Cl)cc3c(N4CC5CCC(C4)N5)nc(OCCCN4CCOC5(CC5)C4)nc3c2F)c2ccccc2c1 (single isomer, unassigned) [Compound 240, 4-((S or R)-2-(3-(4-oxa-7-azaspiro[2.5]octan-7-yl)propoxy)-4-((1R,5S)-3,8-diazacyclo[3.2.1]octan-3-yl)-6-chloro-8-fluoroquinazolin-7-yl)naphthalen-2-ol formate]	0.164	2.21	0.0391

From patent US20230365563A1, “QUINAZOLINE COMPOUND AND APPLICATION THEREOF” (SHANGHAI PHARMACEUTICALS HOLDING CO., LTD., priority 2020, published 2023)
